Legend:
[1] = system: sebaceous glands in the ears of male Syrian hamsters; conditions: topical application, Malloy, V. L. et al. (1989); cited from earlier work
interleukins = conditions: Muller, K. et al. (1988); cited from earlier work
cells = conditions: Abe, E. et al. (1981); cited from earlier work
[2] = system: U937 human histiocytic leukemia cells; assay: antiproliferative effect in U937 human histiocytic leukemia cells relative to 1α,25(OH)2 D3; type: cell-based; conditions: number greater than 1 = higher antiproliferative activity
Method: ^a This test determines the antiproliferative effect in U937 human
histiocytic leukemia cells of the compound relative to
1α,25(OH)2 D3. A number greater than 1 indicates a higher
antiproliferative activity of the compound in question when compared to
1α,25(OH)2 D3. The test was performed exactly as
described: L. Binderup and E. Bramm, Biochem. Pharmacol., 37, (1988)

calcium metabolism = assay: calciuric effect in rats relative to 1α,25(OH)2 D3 (calcium metabolism); type: in vivo; conditions: number smaller than 1 = less change in calcium excretion
Description: ^b This test determines the calciuric effect in rats of the compound
relative to 1α,25(OH)2 D3. A number smaller than 1
indicates less change in calcium excretion of the compound in question
when compared to 1α,25(OH)2 D3. The test was, as above,
performed exactly as described: L. Binderup and E. Bramm, Biochem.

[3] = acid stability: approximate half life in conc. ^2 HCl/^2 H2 O in C^2 H3 CN determined by ^1 H NMR; type: physicochemical; conditions: dcl/d2o in cd3cn; 10 μl conc. ^2 HCl/^2 H2 O in C^2 H3 CN (0.6 ml), 25° C., ^1 H NMR at 500 MHz
Method: | ^c In this test, the compound was treated with a mixture of 10 μl | conc. ^2 HCl/^2 H2 O in C^2 H3 CN (0.6 ml) at | 25° C. and the approximate half life was determined by ^1 H NM | at 500 MHz.

| Compound | size of sebaceous glands [1] | effects and/or production of interleukins (interleukins) | cell differentiation and proliferation (cells) | U937, inhib. of prolifer. [2] | Calcium metabolism (calciuric effect) (calcium metabolism) | half-life [3] [min] |
| --- | --- | --- | --- | --- | --- | --- |
| C=C1/C(=C\C=C2/CCC[C@]3(C)[C@@H]([C@H](C)CCCC(C)(C)O)CC[C@@H]23)C[C@@H](O)C[C@@H]1O [1,25(OH)2 D3, 1α,25-dihydroxy-vitamin D3] | reduces the size of sebaceous glands | influences the effects and/or production of interleukins | able to stimulate the differentiation of cells and inhibit excessive cell proliferation | – | – | – |
| C=C1/C(=C\C=C2/CCC[C@]3(C)[C@@H]([C@H](C)/C=C/[C@@H](O)C4CC4)CC[C@@H]23)C[C@@H](O)C[C@@H]1O [Calcipotriol] | – | – | – | 1 | 0.005 | – |
| C=C1/C(=C\C=C2/CCC[C@]3(C)[C@@H]([C@H](C)/C=C/C#CC(O)(CC)CC)CC[C@@H]23)C[C@@H](O)C[C@@H]1O [Compound 101, 1(S),3(R)-Dihydroxy-20(R)-(5-ethyl-5-hydroxy-hept-1(E)-en-3-yn-1-yl)-9,10-seco-pregna-5(Z),7(E),10(19)-triene] | – | – | – | 89 | 0.2 | – |
| C=C1/C(=C\C=C2/CCC[C@]3(C)[C@@H]([C@@H](C)/C=C/C#CC(O)(CC)CC)CC[C@@H]23)C[C@@H](O)C[C@@H]1O [Compound 102, 1(S),3(R)-Dihydroxy-20(S)-(5-ethyl-5-hydroxy-hept-1(E)-en-3-yn-1-yl)-9,10-seco-pregna-5(Z),7(E),10(19)-triene] | – | – | – | 1.1 | 0.015 | 15 to 30 |
| C=C1/C(=C\C=C2/CCC[C@]3(C)[C@@H]([C@H](C)/C=C/C=C/C(O)(CC)CC)CC[C@@H]23)C[C@@H](O)C[C@@H]1O [EB1089, 1(S),3(R)-Dihydroxy-20(R)-(5'-ethyl-5'-hydroxy-hepta-1' (E),3'(E)-dien-1'-yl)-9,10-secopregna-5(Z),7(E), 10(19)-triene] | – | – | – | 68 | 0.4 | < 5 |

— patent US5716945A, “Vitamin D analogues” (Leo Pharmaceutical Products Ltd. A/S (L.o slashed.vens …, priority 1993, dated 1998)
